pIC50: −log10 of the molar value. Read-outs that look alike come from different tables or passages of the source.
How the values were obtained:
Capan-1 (K-Ras G12V) = assay: CellTiter-Glo cell viability assay, 5-day treatment; assay type: cell-based; settings: Homo sapiens, CAPAN-1, 120 h, 5-day treatment; read-out: Capan-1 Cell Viability assay data (K-Ras G12V, IC50)
Summary of the method: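 Five-day compound treatment of plated cells; luminescent read after ~30 min at RT. Percent-of-DMSO data fit to a four-parameter logistic model.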

KRAS G12D = KRAS G12D (Homo sapiens, UniProt P01116+P62937, G12D); assay: Disruption of BRAF RBD interaction with Ras (FRET / MOA assay, with Cyclophilin A); assay type: biochemical
Summary of the method: (§1)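 TR-FRET: nucleotide-loaded K-Ras mutant or WT with Cyclophilin A and BRAF RBD, compound 10-point 3-fold from 30 μM final, 3 h at 25° C, then anti-His Eu (10 nM) and anti-GST APC (50 nM) for 1.5 h. Decreased FRET ratio versus DMSO gives IC50.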

NRAS G12C = NRAS G12C (Homo sapiens, UniProt P01111+P62937, G12C); assay: as above; assay type: biochemical
KRAS G12C = KRAS G12C (Homo sapiens, UniProt P01116+P62937, G12C); assay: as above; assay type: biochemical
Summary of the method: as §1

KRAS G13C = KRAS G13C (Homo sapiens, UniProt P01116+P62937, G13C); assay: as above; assay type: biochemical
Summary of the method: as §1

KRAS WT = KRAS WT (Homo sapiens, UniProt P01116+P62937); assay: as above; assay type: biochemical
Summary of the method: as §1

KRAS G12S = KRAS G12S (Homo sapiens, UniProt P01116+P62937, G12S); assay: as above; assay type: biochemical
Summary of the method: as §1

KRAS G13D = KRAS G13D (Homo sapiens, UniProt P01116+P62937, G13D); assay: as above; assay type: biochemical
Summary of the method: as §1

KRAS G12V = KRAS G12V (Homo sapiens, UniProt P01116+P62937, G12V); assay: as above; assay type: biochemical
Summary of the method: as §1

[1] = read-out: KRAS G12D FRET data, IC50
[2] = NRAS G12C, read-out: NRAS G12C FRET data IC50
[3] = read-out: KRAS G12C FRET data, IC50
[4] = read-out: KRAS G13C FRET data, IC50
[5] = KRAS WT, read-out: KRAS WT FRET data IC50
[6] = read-out: KRAS G12S FRET data, IC50
[7] = KRAS G13D, read-out: KRAS G13D FRET data IC50
[8] = KRAS G12V, read-out: KRAS G12V FRET data IC50
[9] = NRAS G12C FRET data IC50, NRAS G12C
[10] = KRAS WT FRET data IC50, KRAS WT
[11] = KRAS G13D FRET data IC50, KRAS G13D
[12] = KRAS G12V FRET data IC50, KRAS G12V

Chain of KRAS G12S (P01116 1-169 isoform P01116-2 G12S limits assumed): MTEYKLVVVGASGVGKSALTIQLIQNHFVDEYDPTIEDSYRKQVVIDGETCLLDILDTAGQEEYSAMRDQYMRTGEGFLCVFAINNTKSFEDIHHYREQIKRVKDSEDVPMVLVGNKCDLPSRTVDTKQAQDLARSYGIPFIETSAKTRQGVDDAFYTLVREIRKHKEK
Chain of KRAS G12S (P62937 whole entry): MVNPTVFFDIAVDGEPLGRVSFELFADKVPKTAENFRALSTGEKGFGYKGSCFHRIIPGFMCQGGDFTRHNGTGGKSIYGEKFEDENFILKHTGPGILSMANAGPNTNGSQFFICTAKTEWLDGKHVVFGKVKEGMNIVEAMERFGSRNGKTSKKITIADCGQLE
Chain of KRAS G13D (P01116 1-169 isoform P01116-2 G13D limits assumed): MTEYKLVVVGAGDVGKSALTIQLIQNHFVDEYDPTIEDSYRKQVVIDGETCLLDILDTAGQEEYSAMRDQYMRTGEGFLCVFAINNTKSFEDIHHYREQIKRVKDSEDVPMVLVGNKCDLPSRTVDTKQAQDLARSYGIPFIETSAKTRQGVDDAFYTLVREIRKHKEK
Chain of KRAS G13D (P62937 whole entry): as the sequence (P62937 whole entry) above
Chain of KRAS G12V (P01116 1-169 isoform P01116-2 G12V limits assumed): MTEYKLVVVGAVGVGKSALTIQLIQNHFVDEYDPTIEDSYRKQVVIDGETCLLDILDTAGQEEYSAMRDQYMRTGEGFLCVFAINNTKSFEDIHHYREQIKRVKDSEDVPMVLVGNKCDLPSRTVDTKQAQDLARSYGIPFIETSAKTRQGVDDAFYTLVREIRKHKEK
Chain of KRAS G12V (P62937 whole entry): as the sequence (P62937 whole entry) above
Chain of KRAS G12D (P01116 1-169 isoform P01116-2 G12D limits assumed): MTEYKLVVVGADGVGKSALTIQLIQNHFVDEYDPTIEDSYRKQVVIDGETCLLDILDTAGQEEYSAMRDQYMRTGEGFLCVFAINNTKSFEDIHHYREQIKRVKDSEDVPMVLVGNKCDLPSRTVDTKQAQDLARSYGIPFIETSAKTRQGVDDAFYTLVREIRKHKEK
Chain of KRAS G12D (P62937 whole entry): as the sequence (P62937 whole entry) above
Chain of KRAS G13C (P01116 1-169 isoform P01116-2 G13C): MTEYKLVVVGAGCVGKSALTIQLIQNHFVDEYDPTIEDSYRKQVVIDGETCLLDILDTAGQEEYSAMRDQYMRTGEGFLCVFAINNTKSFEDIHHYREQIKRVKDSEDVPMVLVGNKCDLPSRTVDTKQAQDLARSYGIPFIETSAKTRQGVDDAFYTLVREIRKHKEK
Chain of KRAS G13C (P62937 whole entry): as the sequence (P62937 whole entry) above
Chain of KRAS WT (P01116 1-169 isoform P01116-2 limits assumed): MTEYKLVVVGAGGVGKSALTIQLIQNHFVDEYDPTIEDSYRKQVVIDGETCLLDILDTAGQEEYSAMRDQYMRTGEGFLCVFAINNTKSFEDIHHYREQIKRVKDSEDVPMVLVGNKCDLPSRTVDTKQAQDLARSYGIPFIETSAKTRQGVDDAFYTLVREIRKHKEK
Chain of KRAS WT (P62937 whole entry): as the sequence (P62937 whole entry) above
Chain of KRAS G12C (P01116 1-169 isoform P01116-2 G12C): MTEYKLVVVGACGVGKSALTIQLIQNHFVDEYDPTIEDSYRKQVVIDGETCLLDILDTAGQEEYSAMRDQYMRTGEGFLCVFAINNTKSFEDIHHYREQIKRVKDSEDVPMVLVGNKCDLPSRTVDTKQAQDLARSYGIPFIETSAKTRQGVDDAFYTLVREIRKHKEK
Chain of KRAS G12C (P62937 whole entry): as the sequence (P62937 whole entry) above
Chain of NRAS G12C (P01111 whole entry G12C): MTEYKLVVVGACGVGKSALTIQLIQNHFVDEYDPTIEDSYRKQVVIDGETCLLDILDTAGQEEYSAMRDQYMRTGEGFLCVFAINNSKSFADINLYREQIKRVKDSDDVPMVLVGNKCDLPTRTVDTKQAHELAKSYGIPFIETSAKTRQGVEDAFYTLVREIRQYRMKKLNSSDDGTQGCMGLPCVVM
Chain of NRAS G12C (P62937 whole entry): as the sequence (P62937 whole entry) above

Row | SMILES | pIC50 (Capan-1 (K-Ras G12V)) | pIC50 (KRAS G12D; [1]) | pIC50 (NRAS G12C; [2]) | pIC50 (KRAS G12C; [3]) | pIC50 (KRAS G13C; [4]) | pIC50 (KRAS WT; [5]) | pIC50 (KRAS G12S; [6]) | pIC50 (KRAS G13D; [7]) | pIC50 (KRAS G12V; [8]) | pIC50 (KRAS G12D; KRAS G12D FRET data, IC50) | pIC50 (NRAS G12C; [9]) | pIC50 (KRAS G12C; KRAS G12C FRET data, IC50) | pIC50 (KRAS G13C; KRAS G13C FRET data, IC50) | pIC50 (KRAS WT; [10]) | pIC50 (KRAS G12S; KRAS G12S FRET data, IC50) | pIC50 (KRAS G13D; [11]) | pIC50 (KRAS G12V; [12])
1 | CCn1c(-c2cnccc2COC)c2c3cc(ccc31)-c1cc(O)cc(c1)C[C@H](NC(=O)[C@H](C(C)C)N(C)C(=O)[C@@H]1CN(C(C)=O)C[C@@H]1C(F)(F)F)C(=O)N1CCC[C@H](N1)C(=O)OCC(C)(C)C2 [Example A80] | 5.00 to 6.00 | 6.00 to 7.00 | 6.00 to 7.00 | 6.00 to 7.00 | 6.00 to 7.00 | 6.00 to 7.00 | 6.00 to 7.00 | 6.00 to 7.00 | 5.00 to 6.00 |  |  |  |  |  |  |  | 
2 | CCn1c(-c2cccnc2[C@H](C)OC)c2c3cc(ccc31)-c1cc(O)cc(c1)C[C@H](NS(=O)(=O)CC1OCCC13CNC3)C(=O)N1CCC[C@H](N1)C(=O)OCC(C)(C)C2 (mixture of isomers) [Example A187] | < 5.00 | < 5.00 | < 5.00 | < 5.00 | < 5.00 | < 5.00 | < 5.00 | < 5.00 | < 5.00 |  |  |  |  |  |  |  | 
3 | CCn1c(-c2cccnc2[C@H](C)OC)c2c3cc(ccc31)-c1cccc(c1)C[C@H](NC(=O)[C@H](C(C)C)N(C)C(=O)[C@H]1CCN(C(=O)CNC)C1)C(=O)N1CCC[C@H](N1)C(=O)OCC(C)(C)C2 [Example A98] | < 5.00 |  |  |  |  |  |  |  |  | 5.00 to 6.00 | 6.00 to 7.00 | 6.00 to 7.00 | 6.00 to 7.00 | 5.00 to 6.00 | 5.00 to 6.00 | 5.00 to 6.00 | 5.00 to 6.00
4 | CCn1c(-c2cccnc2[C@H](C)OC)c2c3cc(ccc31)-c1cccc(c1)C[C@H](NC(=O)[C@H](C(C)C)N(C)C(=O)[C@H]1CCN(C(=O)C(C)(C)N(C)C)C1)C(=O)N1CCC[C@H](N1)C(=O)OCC(C)(C)C2 [Example A112] | 5.00 to 6.00 | 5.00 to 6.00 | 5.00 to 6.00 | 5.00 to 6.00 | 5.00 to 6.00 | 5.00 to 6.00 | 5.00 to 6.00 | 5.00 to 6.00 | 5.00 to 6.00 |  |  |  |  |  |  |  | 
5 | CCn1c(-c2cccnc2[C@H](C)OC)c2c3cc(ccc31)-c1cccc(c1)C[C@H](NC(=O)[C@H](C(C)C)N(C)C(=O)[C@H]1CCN(C(=O)CN(C)C)C1)C(=O)N1CCC[C@H](N1)C(=O)OCC(C)(C)C2 [Example A96] | 5.00 to 6.00 | 5.00 to 6.00 | 6.00 to 7.00 | 6.00 to 7.00 | 6.00 to 7.00 | 5.00 to 6.00 | 5.00 to 6.00 | 5.00 to 6.00 | 5.00 to 6.00 |  |  |  |  |  |  |  | 
6 | CCn1c(-c2cccnc2[C@H](C)OC)c2c3cc(ccc31)-c1csc(n1)C[C@H](NC(=O)[C@H](C(C)C)N(C)C(=O)[C@H]1CCN(C)C1)C(=O)N1CCC[C@H](N1)C(=O)OCC(C)(C)C2 [Example A108] | < 5.00 | 5.00 to 6.00 | 5.00 to 6.00 | 5.00 to 6.00 | 5.00 to 6.00 | 5.00 to 6.00 | 5.00 to 6.00 | 5.00 to 6.00 | < 5.00 |  |  |  |  |  |  |  | 
7 | CCn1c(-c2cccnc2[C@H](C)OC)c2c3cc(ccc31)-c1cc(O)cc(c1)C[C@H](NC(=O)[C@@H]1C[C@H]1C)C(=O)N1CCC[C@H](N1)C(=O)OCC(C)(C)C2 [Example A183] | 5.00 to 6.00 | < 5.00 | 5.00 to 6.00 | 6.00 to 7.00 | 6.00 to 7.00 | 5.00 to 6.00 | 5.00 to 6.00 | 5.00 to 6.00 | 5.00 to 6.00 |  |  |  |  |  |  |  | 
8 | CCn1c(-c2cccnc2[C@H](C)OC)c2c3cc(ccc31)-c1cc(O)cc(c1)C[C@H](NC(=O)[C@H](C(C)C)N(C)C(=O)C1CCNCC1)C(=O)N1CCC[C@H](N1)C(=O)OCC(C)(C)C2 [Example A122] | < 5.00 |  |  |  |  |  |  |  |  | 6.00 to 7.00 | 6.00 to 7.00 | 6.00 to 7.00 | 6.00 to 7.00 | 6.00 to 7.00 | 6.00 to 7.00 | 6.00 to 7.00 | 5.00 to 6.00
9 | CCn1c(-c2cccnc2[C@@H]2CCCO2)c2c3cc(ccc31)-c1csc(n1)C[C@H](NC(=O)[C@H](C(C)C)N(C)C(=O)N1CC(N(C)C)C1)C(=O)N1CCC[C@H](N1)C(=O)OCC(C)(C)C2 (atropisomer, axis not shown) [Example A327] | 5.00 to 6.00 | < 5.00 | < 5.00 | < 5.00 | < 5.00 | < 5.00 | < 5.00 | < 5.00 | < 5.00 |  |  |  |  |  |  |  | 
10 | CCn1c(-c2cccnc2[C@H](C)OC)c2c3cc(ccc31)-c1cc(O)cc(c1)C[C@H](NS(=O)(=O)CCN(C)C)C(=O)N1CCC[C@H](N1)C(=O)OCC(C)(C)C2 (racemic) [Example A190] | < 5.00 | < 5.00 | < 5.00 | < 5.00 | < 5.00 | < 5.00 | < 5.00 | < 5.00 | < 5.00 |  |  |  |  |  |  |  | 
11 | C=CC(=O)N1CC[C@H](C(=O)Nc2ccccc2C(=O)N[C@H]2Cc3cc(O)cc(c3)-c3ccc4c(c3)c(c(-c3cnccc3COC)n4CC)CC(C)(C)COC(=O)[C@@H]3CCCN(N3)C2=O)C1 [Example A229] | 5.00 to 6.00 | 6.00 to 7.00 | 7.00 to 8.00 | 7.00 to 8.00 | 7.00 to 8.00 | 6.00 to 7.00 | 6.00 to 7.00 | 7.00 to 8.00 | 6.00 to 7.00 |  |  |  |  |  |  |  | 
12 | CCn1c(-c2cccnc2[C@H](C)OC)c2c3cc(ccc31)-c1cccc(c1)C[C@H](NC(=O)[C@H](C(C)C)N(C)C(=O)[C@H]1CCN(C(=O)CN)C1)C(=O)N1CCC[C@H](N1)C(=O)OCC(C)(C)C2 [Example A105] | < 5.00 | 5.00 to 6.00 | 5.00 to 6.00 | 6.00 to 7.00 | 6.00 to 7.00 | 5.00 to 6.00 | 5.00 to 6.00 | 5.00 to 6.00 | 5.00 to 6.00 |  |  |  |  |  |  |  | 
13 | CCn1c(-c2cccnc2[C@H](C)OC)c2c3cc(ccc31)-c1csc(n1)C[C@H](NC(=O)[C@H](C(C)C)N(C)C(=O)[C@H]1CCN(C(=O)C(C)(C)N(C)C)C1)C(=O)N1CCC[C@H](N1)C(=O)OCC(C)(C)C2 [Example A113] | 5.00 to 6.00 | 5.00 to 6.00 | 5.00 to 6.00 | 5.00 to 6.00 | 5.00 to 6.00 | 5.00 to 6.00 | 5.00 to 6.00 | 5.00 to 6.00 | 5.00 to 6.00 |  |  |  |  |  |  |  | 
14 | C=C[C@@H]1C[C@]1(N)C(=O)N(C)[C@H](C(=O)N[C@H]1Cc2cc(O)cc(c2)-c2ccc3c(c2)c(c(-c2cccnc2[C@H](C)OC)n3CC)CC(C)(C)COC(=O)[C@@H]2CCCN(N2)C1=O)C(C)C [Example A149] | 5.00 to 6.00 | 6.00 to 7.00 | 6.00 to 7.00 | 7.00 to 8.00 | 7.00 to 8.00 | 7.00 to 8.00 | 6.00 to 7.00 | 6.00 to 7.00 | 6.00 to 7.00 |  |  |  |  |  |  |  | 
